# Data as given in patent US11918675B2, “Oral care compositions” (priority 2019, dated 2024).
# Assays:
# Assay type in all cases: cell-based
# Whole human saliva [1] = assay: In vitro malodor study: microbial growth by OD610; details: pooled whole human saliva 2% in growth medium, incubated overnight, n=6
# Protocol: (§1) An in vitro malodor study was conducted to evaluate the effect of various combinations of inulin and xylitol with zinc on oral malodor. Malodor is a combination of hydrogen sulfide and other volatile compounds. Microbial growth as measured by OD610, and fermentation, as measured by pH (confounding variables that impact oral malodor) were also evaluated.
# (§2) Whole human saliva was collected from four donors, pooled and suspended in growth medium at a 2% final concentration. Stock, simple solutions of inulin, xylitol, and zinc citrate were prepared in growth medium and incorporated according to the experiment design specified in Table 3 (below). Treatment suspensions were incubated overnight in sterilized headspace vials.
# (§3) Malodor (i.e., hydrogen sulfide and other volatile compounds) in the culture vial headspace was quantified using validated procedures on Voice200ultra SIFT-MS (Syft Technologies, Christchurch, New Zealand). Following SIFT-MS analysis, microbial growth was quantified using optical density at λ=610 nm.
# Whole human saliva [2] = assay: In vitro malodor study: hydrogen sulfide in headspace by SIFT-MS; details: pooled whole human saliva 2% in growth medium, incubated overnight, n=6; groups stratified by growth and pH
# Protocol: as §1, §2, §3
# Hydrogen sulfide in headspace of salivary inoculum was quantified using SIFT-MS validated procedure.
# Whole human saliva [3] = assay: In vitro malodor study: fermentation measured by pH; details: pooled whole human saliva 2% in growth medium, incubated overnight, n=6
# Protocol: as §1, §2
# The pH was measured using a standard pH meter by following validated procedures. Statistical significance of differences for all parameters was determined using one-way ANOVA test at 95% confidence level with a Tukey pairwise comparison test. Microbial growth and pH were used to stratify the treatments for hydrogen sulfide statistical analysis.
Structure (SMILES),"Microbial growth as observed by OD610, Mean (Whole human saliva [1])","Hydrogen sulfide in headspace of salivary inoculum, Mean (Whole human saliva [2]) [ppb]","pH, Mean (Whole human saliva [3])"
"OC[C@@H](O)[C@H](O)[C@@H](O)CO [Example 4, xylitol]",0.4182,2243,5.9067
"O=C([O-])CC(O)(CC(=O)[O-])C(=O)[O-].O=C([O-])CC(O)(CC(=O)[O-])C(=O)[O-].[Zn+2].[Zn+2].[Zn+2] [Example 5, zinc citrate]",0.1407,21.86,6.5948
